This is an account of results in patent publication US9828605B2, “Composition for enhancing radiation sensitivity comprising PI4K isozyme inhibitor” (Seoul National University R&DB Foundation, priority 2015, dated 2017).

For assay [1], the system named is U251 cell line. The assay is described as follows: colony formation assay after antiviral drug treatment and irradiation, U251. Format: cell-based. Conditions: drug concentrations determined as 100 nM, 200 nM and 30 μM, FIGS. 5 to 7. Here is the method: (§1) First, after 48 hours of siRNA transduction of Example 2, the cells were collected and 500 with 0 Gy, 1,000 with 2 Gy, 2,000 with 4 Gy, and 4,000 with 6 Gy cells were cultured on a plate according to a radiation dose. After it was checked that the cells were stably attached to a culture dish, radiation was treated with a radiation dose rate of 2.46 Gy per minute by 4 MV X-ray by using a linear accelerator, and the cells were cultured for about 14 days to 23 days until cell colonies were checked with the naked eye. The formed colonies were fixed with 100% methanol and then dyed with 0.5% crystal violet, and surviving fraction was calculated by counting the number of colonies including at least 50 cells. In the surviving fraction, an average of the number of cell colonies in three wells for each radiation dose was shown according to a linear-quadratic model using Kaleidagraph version 3.51 (Synergy Software, Reading, Pa.), and the result was illustrated in FIG. 2.
(§2) As the hepatitis anti-C virus drug, simeprevir (Olysio) (Janssen Pharmaceutica), sofosbuvir (sovaldi) (Gilead), and daclatasvir (Daklinza) (Bristol-Myers Squibb) were used. […]
(§3) After the determined amount of drug was treated in the brain tumor and breast cancer cell lines, the colony formation assay was performed by the same method as Experimental Example 1, and the result was illustrated in FIGS. 5 to 7.

The test system of assay [2] is phosphorylation of PKC and AKT. The assay can be described thus: immune blotting of phosphorylation after simeprevir treatment, U251. Format: cell-based. Conditions: 24-72 hours of drug treatment, FIG. 5 right panel. Here is the method: Simeprevir used as a hepatitis anti-C virus drug was treated and phosphorylation was verified through immune blotting after 24-72 hours of drug treatment. The result was illustrated in FIG. 5 (right panel).

Assay [3] deals with human breast cancer cell lines BT-474. The assay is described as follows: tumor xenograft model in vivo with radiation irradiation. The following applies: simeprevir 10 mg/Kg to peritoneal cavity three times a week for two weeks + radiation 9 Gy (3 Gy three times a week); compared with other groups; FIG. 9. The arrangement: species or system BALB/c athymic nude mouse. The protocol: In order to form a tumor xenograft model in vivo, 5×10^6 human breast cancer cell lines BT-474 were injected to a hind leg of a BALB/c athymic nude mouse. After 3 weeks, it was verified that the tumor was uniformly grown, and the mouse was randomly assigned to four groups of a control group, a simeprevir group, a radiation irradiation group, and a simeprevir+radiation irradiation group. The simeprevir was administrated to peritoneal cavity with a concentration of 10 mg/Kg three times a week for two weeks, and the radiation was irradiated with 9 Gy three times a week by 3 Gy by electron beam of 6 MeV while covering 1 cm bolus. After the entire treatment was finished, the size of the tumor was measured at an interval of about 1 week, and the result was illustrated in FIG. 9.

In assay [4] the test system is BT-474 cell line. The assay is described as follows: colony formation assay after antiviral drug treatment and irradiation, BT-474. Format: cell-based, human. Conditions: drug concentrations determined as 100 nM, 200 nM and 30 μM, FIGS. 5 and 6. The protocol:
as §1, §2, §3

As to `COc1ccc2c(O[C@@H]3C[C@H]4C(=O)N[C@]5(C(=O)NS(=O)(=O)C6CC6)C[C@H]5/C=C\CCCCN(C)C(=O)[C@@H]4C3)cc(-c3nc(C(C)C)cs3)nc2c1C` [simeprevir], the “sensitivity to radiation (colony formation assay)” value (“sensitivity to radiation” below) in assay [1] is recorded as “enhanced”. Moreover, in assay [2], the “phosphorylation of AKT” value is recorded as “reduction” and the “phosphorylation of PKC” value is recorded as “reduction”. Also, in assay [3], the “growth of the tumor” value is given as “significantly inhibited”. Also, in assay [4], the “sensitivity to radiation” value is on record as “enhanced”.
Take `CC(C)OC(=O)[C@H](C)N[P@](=O)(OC[C@H]1O[C@@H](n2ccc(=O)[nH]c2=O)[C@](C)(F)[C@@H]1O)Oc1ccccc1` [sofosbuvir]: the “sensitivity to radiation” value in assay [1] and in assay [4] was “enhanced” in each case.
